In publication PMC6125496 (Antimicrobial Agents and Chemotherapy, 2018):
In brackets after ≈: the same amount, converted by molar mass.

Experiments:
[1] = test system: Klebsiella pneumoniae NCTC 13442; assay: microbe, parasite or virus in culture; details: Klebsiella pneumoniae, NCTC13442
Excerpt: (§1) Reference strains are from the German Collection of Microorganisms and Cell Cultures (DSMZ), the American Type Culture Collection (ATCC), the National Collection of Type Cultures (NCTC), and the Medical and Molecular Microbiology, Faculty of Science and Medicine, University of Fribourg, Switzerland.

[2] = test system: Klebsiella pneumoniae NCTC 13443; assay: microbe, parasite or virus in culture; details: Klebsiella pneumoniae, NCTC13443
Excerpt: as §1

[3] = test system: Ciprofloxacin-resistant E. coli (19); assay: microbe, parasite or virus in culture; details: Escherichia coli
Excerpt: as §1

[4] = test system: Acinetobacter baumannii ATCC 19606; assay: microbe, parasite or virus in culture; details: Acinetobacter baumannii, ATCC19606
Excerpt: as §1

[5] = test system: Klebsiella pneumoniae ATCC BAA-1905; assay: microbe, parasite or virus in culture; details: Klebsiella pneumoniae, ATCCBAA1905
Excerpt: as §1

[6] = test system: Klebsiella pneumoniae ATCC BAA-1904; assay: microbe, parasite or virus in culture; details: Klebsiella pneumoniae, ATCCBAA1904
Excerpt: as §1

[7] = test system: Enterobacter cloacae DSM 14563; assay: microbe, parasite or virus in culture; details: Enterobacter cloacae, DSM14563
Excerpt: as §1

[8] = test system: Klebsiella pneumoniae (56); assay: microbe, parasite or virus in culture; details: Klebsiella pneumoniae
Excerpt: as §1

[9] = test system: Klebsiella pneumoniae NCTC 13439; assay: microbe, parasite or virus in culture; details: Klebsiella pneumoniae, NCTC13439
Excerpt: as §1

[10] = test system: Enterococcus faecalis DSM 2570; assay: microbe, parasite or virus in culture; details: Enterococcus faecalis, DSM2570
Excerpt: as §1

[11] = test system: Escherichia coli (101); assay: microbe, parasite or virus in culture; details: Escherichia coli
Excerpt: as §1

[12] = test system: Pseudomonas aeruginosa DSM 1117; assay: microbe, parasite or virus in culture; details: Pseudomonas aeruginosa, DSM1117
Excerpt: as §1

[13] = test system: Escherichia coli BAA-2469; assay: microbe, parasite or virus in culture; details: Escherichia coli, BAA2469, Ambler class B carbapenemase; NDM-1
Excerpt: as §1

[14] = test system: Enterobacter cloacae (13); assay: microbe, parasite or virus in culture; details: Enterobacter cloacae
Excerpt: as §1

[15] = test system: Gentamicin-resistant K. pneumoniae (16); assay: microbe, parasite or virus in culture; details: Klebsiella pneumoniae
Excerpt: as §1

[16] = test system: Streptococcus pneumoniae DSM 2134; assay: microbe, parasite or virus in culture; details: Streptococcus pneumoniae, DSM2134
Excerpt: as §1

[17] = test system: Citrobacter freundii (16); assay: microbe, parasite or virus in culture; details: Citrobacter freundii
Excerpt: as §1

[18] = test system: Escherichia coli BAA-2471; assay: microbe, parasite or virus in culture; details: Escherichia coli, BAA2471
Excerpt: as §1

[19] = test system: Enterococcus faecium DSM 20477; assay: microbe, parasite or virus in culture; details: Enterococcus faecium, DSM20477
Excerpt: as §1

[20] = test system: Serratia marcescens DSM 17174; assay: microbe, parasite or virus in culture; details: Serratia marcescens, DSM17174
Excerpt: as §1

[21] = test system: Stenotrophomonas maltophilia ATCC 13637; assay: microbe, parasite or virus in culture; details: Stenotrophomonas maltophilia, ATCC13637
Excerpt: as §1

[22] = test system: Citrobacter kozeri DSM 4595; assay: microbe, parasite or virus in culture; details: Citrobacter, DSM4595
Excerpt: as §1

[23] = test system: Klebsiella pneumoniae ATCC 43816; assay: microbe, parasite or virus in culture; details: Klebsiella pneumoniae, ATCC43816
Excerpt: as §1

[24] = test system: Staphylococcus epidermidis ATCC 12228; assay: microbe, parasite or virus in culture; details: Staphylococcus epidermidis, ATCC12228
Excerpt: as §1

[25] = test system: Escherichia coli ATCC 25922; assay: microbe, parasite or virus in culture; details: Escherichia coli, ATCC25922
Excerpt: as §1

[26] = test system: Staphylococcus aureus ATCC 29213; assay: microbe, parasite or virus in culture; details: Staphylococcus aureus, ATCC29213
Excerpt: as §1

[27] = test system: Citrobacter freundii DSM 30039; assay: microbe, parasite or virus in culture; details: Citrobacter freundii, DSM30039
Excerpt: as §1

[28] = test system: Ciprofloxacin-resistant K. pneumoniae (27); assay: microbe, parasite or virus in culture; details: Klebsiella pneumoniae
Excerpt: as §1

[29] = test system: Enterobacter aerogenes DSM 30053; assay: microbe, parasite or virus in culture; details: Klebsiella aerogenes, DSM30053
Excerpt: as §1

[30] = test system: human renal proximal tubular epithelial cells (HRPTEpiC); assay: Multiplexed HRPTEpiC cytotoxicity assay (cell viability, KIM-1, HSP27)
Experimental: The multiplexed cytotoxicity assay on human renal proximal tubule epithelial cells (HRPTEpiC) was conducted by Eurofins Panlabs (Eurofins Panlabs, Inc., St. Charles, MO) by using an image-based high content analysis (HCA) technique where cells were fixed and stained with nuclear dye to visualize nuclei and fluorescently labeled antibodies to detect drug-induced cellular injury and cellular stress arising from oxidative and chemical stress. Cells were seeded into 384-well plates and grown in RPMI 1640, 10% fetal bovine serum (FBS), 2 mM L-alanyl-L-glutamine, and 1 mM sodium pyruvate in a humidified atmosphere of 5% CO2 at 37°C. […] Compounds were serially diluted 3.16-fold and assayed over 10 concentrations in a final assay concentration of 0.5% dimethyl sulfoxide (DMSO) from 100 μM to 3.7 nM. At the same time, a time zero untreated cell plate was generated. After a 48-h incubation period, cells were fixed and stained with fluorescently labeled antibodies and nuclear dyed to allow visualization of nuclei, injured cells, and stressed cells. Injured cells were detected using a KIM-1 (kidney injury molecule 1) antibody. Stressed cells were detected using an anti-HSP27 (heat shock protein 27) antibody. Cell proliferation was measured by the signal intensity of the incorporated nuclear dye. The cell proliferation assay output was referred to as the relative cell count. To determine the cell proliferation endpoint, the cell proliferation data output was transformed to percentage of control (POC) using the following formula: POC = relative cell count in compound wells/relative cell count in vehicle wells × 100. The signal intensity of the incorporated cellular stress and injury measurements were normalized with the relative cell count from each well. Automated fluorescence microscopy was carried out using a Molecular Devices ImageXpress micro-imager, and images were collected with a 4× objective.

CNC(C)C1CCC(N)C(OC2C(N)CC(N)C(OC3OCC(C)(O)C(NC)C3O)C2O)O1 (stereo not shown) [GEN, gentamicin]
MIC [1]: 0.25 µg/mL (≈ 0.523 µM) | MIC [2]: > 64 µg/mL | MIC50 [3]: 0.5 µg/mL (≈ 1.05 µM) | MIC90 [3]: > 32 µg/mL | MIC [4]: 16 µg/mL (≈ 33.5 µM) | MIC [5]: 32 µg/mL (≈ 67 µM) | MIC [6]: 16 µg/mL (≈ 33.5 µM) | MIC [7]: 0.5 µg/mL (≈ 1.05 µM) | MIC50 [8]: 1 µg/mL (≈ 2.09 µM) | MIC90 [8]: > 32 µg/mL | MIC [9]: 1 µg/mL (≈ 2.09 µM) | MIC [10]: 16 µg/mL (≈ 33.5 µM) | MIC50 [11]: 1 µg/mL (≈ 2.09 µM) | MIC90 [11]: 2 µg/mL (≈ 4.19 µM) | MIC [12]: 1 µg/mL (≈ 2.09 µM) | MIC [13]: > 64 µg/mL | MIC50 [14]: 32 µg/mL (≈ 67 µM) | MIC90 [14]: > 32 µg/mL | MIC50 [15]: > 32 µg/mL | MIC90 [15]: > 32 µg/mL | MIC [16]: 8 µg/mL (≈ 16.8 µM) | MIC50 [17]: 1 µg/mL (≈ 2.09 µM) | MIC90 [17]: > 32 µg/mL | MIC [18]: > 64 µg/mL | MIC [19]: 8 µg/mL (≈ 16.8 µM) | MIC [20]: 0.5 µg/mL (≈ 1.05 µM) | MIC [21]: 4 µg/mL (≈ 8.38 µM) | MIC [22]: 0.25 µg/mL (≈ 0.523 µM) | MIC [23]: 0.25 µg/mL (≈ 0.523 µM) | MIC [24]: ≤ 0.125 µg/mL | MIC [25]: 1 µg/mL (≈ 2.09 µM) | MIC [26]: 0.5 µg/mL (≈ 1.05 µM) | MIC [27]: 0.5 µg/mL (≈ 1.05 µM) | MIC50 [28]: 32 µg/mL (≈ 67 µM) | MIC90 [28]: > 32 µg/mL | MIC [29]: 0.25 µg/mL (≈ 0.523 µM) | cytotoxicity to HRPTEpiC (in words) ([30]; concentrations up to 100 μM, 48-h incubation): not cytotoxic | concentration inducing a significant (5-fold) increase of HSP27 level ([30]; tested up to 100 μM): 22.4 µM | concentration inducing a significant (5-fold) increase of KIM-1 level ([30]; tested up to 100 μM): > 100 µM

C[C@@H](O)[C@H]1C(=O)N2C(C(=O)O)=C(SCCN=CN)C[C@H]12 [IPM, imipenem]
MIC [1]: 16 µg/mL (≈ 53.4 µM) | MIC [2]: > 64 µg/mL | MIC [4]: 0.5 µg/mL (≈ 1.67 µM) | MIC [5]: > 64 µg/mL | MIC [6]: 32 µg/mL (≈ 107 µM) | MIC [7]: 1 µg/mL (≈ 3.34 µM) | MIC [9]: 32 µg/mL (≈ 107 µM) | MIC [10]: 1 µg/mL (≈ 3.34 µM) | MIC [12]: 2 µg/mL (≈ 6.68 µM) | MIC [13]: 32 µg/mL (≈ 107 µM) | MIC [16]: ≤ 0.125 µg/mL | MIC [18]: > 64 µg/mL | MIC [19]: 4 µg/mL (≈ 13.4 µM) | MIC [20]: 2 µg/mL (≈ 6.68 µM) | MIC [21]: > 64 µg/mL | MIC [22]: 4 µg/mL (≈ 13.4 µM) | MIC [23]: 1 µg/mL (≈ 3.34 µM) | MIC [24]: ≤ 0.125 µg/mL | MIC [25]: 0.25 µg/mL (≈ 0.835 µM) | MIC [26]: ≤ 0.125 µg/mL | MIC [27]: 1 µg/mL (≈ 3.34 µM) | MIC [29]: 2 µg/mL (≈ 6.68 µM)
